According to patent publication US20090220435A1, “TIGHT JUNCTION MODULATING PEPTIDE COMPONENTS FOR ENHANCING MUCOSAL DELIVERY OF THERAPEUTIC AGENTS” (priority 2005, published 2009):
Where two headings read alike, the source gives them in different places.

Tests used:
[1] = test system: in vitro epithelial tissue model (EpiAirway™); assay: Drug permeation (Papp) in the in vitro epithelial tissue model
From the text: (§1) A. A “kit” of 24 EpiAirway™ units can routinely be employed for evaluating five different formulations, each of which is applied to quadruplicate wells. Each well is employed for determination of permeation kinetics (4 time points), transepithelial electrical resistance (TER). An additional set of wells is employed as controls, which are sham treated during determination of permeation kinetics, but are otherwise handled identically to the test sample-containing units for determinations of transepithelial resistance and viability.
(§2) B. In all experiments, the mucosal delivery formulation to be studied is applied to the apical surface of each unit in a volume of 100 μL, which is sufficient to cover the entire apical surface. An appropriate volume of the test formulation at the concentration applied to the apical surface (no more than 100 μL is generally needed) is set aside for subsequent determination of concentration of the active material by ELISA or other designated assay.
(§3) D. In order to minimize potential sources of error and avoid any formation of concentration gradients, the units are transferred from one 0.9 mL-containing well to another at each time point in the study. These transfers are made at the following time points, based on a zero time at which the 100 μL volume of test material was applied to the apical surface: 15 minutes, 30 minutes, 60 minutes, and 120 minutes.
(§4) F. At the completion of each time point, the medium is removed from the well from which each unit was transferred, and aliquotted into two tubes (one tube receives 700 μL and the other 200 μL) for determination of the concentration of permeated test material and, in the event that the test material is cytotoxic, for release of the cytosolic enzyme, lactate dehydrogenase, from the epithelium. These samples are kept in the refrigerator if the assays are to be conducted within 24 hours, or the samples are subaliquotted and kept frozen at −80° C. until thawed once for assays. Repeated freeze-thaw cycles are to be avoided.
(§5) EIA kit (p/n S-1178(EIAH6101) was purchased from Peninsula Laboratories Inc. (Division of BACHEM, San Carlos, Calif., 800-922-1516). 17×120 mm polypropylene conical tubes (p/n 352097, Falcon, Franklin Lakes, N.J.) were used for all sample preparations. Eight standards were used for PTH quantitation. The rest of the assay procedure was the same as the kit inserts.
(§6) The instant study was designed to evaluate the effect of PN159 itself or in combination with additional permeation enhancers on PTH permeation. The PN159 concentrations evaluated are 25, 50, and 100 μM. The additional permeation enhancers are 45 mg/ml M-β-CD, 1 mg/ml DDPC, and 1 mg/ml EDTA. Sorbitol was used as a tonicifier (146-190 mM) to adjust the osmolarity of formulations to 220 mOsm/kg. The formulation pH was fixed at 4.5. PTH was chosen as a model peptide in this example. 2 mg/ml PTH was combined with PN159 with or without additional permeation enhancers. The combination was tested using an in vitro epithelial tissue model to monitor PTH permeation, transepithelial electrical resistance (TER), and the cytotoxicity of the formulation by LDH assay.
(§7) The concentrations of MC-4RA in the basolateral media was analyzed by the RP-HPLC using a C18 RP chromatography with a flow rate of 1 mL/minute and a column temperature of 25° C. • Solvent A: 0.1% TFA in water; Solvent B: 0.1% TFA in ACN • Injection Volume: 50 μL • Detection: 220 nm • RUN TIME: 15 MIN
(§8) Galantamine concentration in the formulation and in the basolateral media (permeation samples) was determined using an isocratic LC (Waters Alliance) method with UV detection. • Column: Waters Symmetry Shield, C18, 5 um, 25×0.46 cm • Mobile phase: 5% ACN in 50 mM ammonium formate, pH 3.0 • Flow rate: 1 ml/min • Column temperature: 30° C. • Calibration curve: 0-400 μg/ml Galantamine HBr • Detection: UV at 285 nm

[2] = as above; settings: human, pH 5, Papp
From the text: as §1, §2, §3, §4, §5, §6, §7, §8

[3] = test system: EpiAirway™ human-derived tracheal/bronchial epithelial cells; assay: TER recovery after peptide treatment; assay type: cell-based; settings: among all TJMPs tested
[4] = test system: EpiAirway™ human-derived tracheal/bronchial epithelial cells; assay: Cytotoxicity (LDH assay); assay type: cell-based; settings: for LDH15: 15 minute treatment at the peptide's optimal concentration; for LDH60: 60 minute treatment at the peptide's optimal concentration
Protocol: The amount of cell death was assayed by measuring the loss of lactate dehydrogenase (LDH) from the cells using a CytoTox 96 Cytoxicity Assay Kit (Promega Corp., Madison, Wis.). Fifty microliters of sample was loaded into a 96-well assay plates. Fresh, cell-free culture medium was used as a blank. 50 μl of substrate solution was added to each well and the plates incubated for 30 minutes at room temperature in the dark. Following incubation, 50 μl of stop solution was added to each well and the plates read on an optical density plate reader at 490 nm.
The amount of cell death will be assayed by measuring the loss of lactate dehydrogenase (LDH) from the cells using a CytoTox 96 Cytotoxicity Assay Kit (Promega Corp., Madison, Wis.). Fifty microliters of sample will be loaded into a 96-well assay plates. Fresh, cell-free culture medium will be used as a blank. Fifty microliters of substrate solution will be added to each well and the plates incubated for 30 minutes at room temperature in the dark. Following incubation, 50 μl of stop solution will be added to each well and the plates read on an optical density plate reader at 490 nm. The measurement of LDH release into the basolateral media indicates relative cytotoxicity of the samples. One hundred percent lysis of control inserts with 0.3% Octylphenolpoly(ethyleneglycolether)×(TritonX-100) allows LDH values to be expressed as percentage of total lysis.
In some embodiments, The amount of cell death was assayed by measuring the release of lactate dehydrogenase (LDH) from the cells into the apical medium using a CytoTox 96 Cytotoxicity Assay Kit (Promega Corp., Madison, Wis.). One percent Octylphenolpoly (ethyleneglycolether)×(Triton X-100™) diluted in phosphate buffered saline (PBS) causes 100% lysis in cultured cells and served herein as a positive control for the LDH assay. Following the one hour incubation period with a test formulation (refer to Table 24 of Example 25 for details of test formulations), the total liquid volume of each insert was brought to a final volume of 200 μl with culture medium. The apical medium was then mixed by pipetting four times with a multichannel pipette set to a 100 μl volume. After mixing, a 100 μl sample from the apical side of each insert was transferred to a new 96-well plate. The apical media samples were sealed with a plate sealer and stored at room temperature for same day analysis or stored overnight at 4° C. for analysis the next day. To measure LDH levels, 5 μl of the 100 μl apical media sample was diluted in 45 μl DPBS in a new 96-well plate. Fresh, cell-free culture medium will be used as a blank. Fifty microliters of substrate solution was added to each well and incubated for 30 minutes at room temperature away from direct light. Following the 30 minute incubation, 50 μl of stop solution was added to each well. Optical density (OD) was measured at 490 nm with a uQuant absorbance plate reader from Biotek Instruments. The measurement of LDH release into the apical media indicates relative cytotoxicity of the samples. Percent cytotoxicity for each test formulation was calculated by subtracting the measured absorbance of the PBS control (basal level of LDH release) from the measured absorbance of the individual test formulation and then dividing that value by the measured absorbance for the 1% Triton X-100™ positive control, multiplied by 100.
An LDH assay was used to assess the cytotoxicity of the treatments. The LDH level was determined by CytoTox96 Non-Radioactive Cytotoxic Assay (Promega, Madison, Wis.) following the manufacturer's protocol. For basal-lateral LDH levels, triplicates of 50 ul of the basal medium were used to determine the LDH level. For apical LDH level, 150 ul of the diluted apical sample was removed by adding 150 ul of Epi-CM to the apical chamber, the medium was mixed by pipeting up and down, and 150 ul medium was removed and diluted 2× (for a final 8-fold dilution) for assay in triplicates of 50 ul.

[5] = test system: EpiAirway™ human-derived tracheal/bronchial epithelial cells; assay: Transepithelial electrical resistance (TER) across EpiAirway epithelial cell layer; assay type: cell-based
[6] = [PN159] 0 μM, galantamine 40 mg/mL pH 5.0, calcitonin 1 mg/mL pH 3.5, PTH1-34 1 mg/mL pH 4.5, PYY3-36 1 mg/mL pH 5.0
[7] = [PN159] 25 μM, galantamine 40 mg/mL pH 5.0, calcitonin 1 mg/mL pH 3.5, PTH1-34 1 mg/mL pH 4.5, PYY3-36 1 mg/mL pH 7.0
[8] = [PN159] 100 μM, galantamine 40 mg/mL pH 5.0, calcitonin 1 mg/mL pH 3.5, PTH1-34 1 mg/mL pH 4.5, PYY3-36 1 mg/mL pH 7.0

Row | Molecule | Papp [1, 6] [cm/s] | TER recovery time [3] | LDH15 [4] | LDH60 [4] | TER reduction ([5]; 10 μM peptide) [%] | TER reduction ([5]; 25 μM peptide) [%] | TER reduction ([5]; 100 μM peptide) [%] | TER reduction ([5]; 500 μM peptide) [%] | further results
1 | COc1ccc2c3c1O[C@H]1C[C@@H](O)C=C[C@@]31CCN(C)C2 [Galantamine, galantamine] | 2.1e-06 | – | – | – | – | – | – | – | fold increase in Papp in the presence of PN159 ([1]; PN159 25-100 vs drug alone): 2.5-3.5 fold; Papp A→B at 120 min, 40 mg/mL [2, 6]: ~2.1 ×10⁻⁶ cm/s; Papp A→B at 120 min, 40 mg/mL [2, 7]: 5.1 ×10⁻⁶ cm/s; Papp A→B at 120 min, 40 mg/mL ([2]; [PN159] 50 μM, galantamine 40 mg/mL pH 5.0, calcitonin 1 mg/mL pH 3.5, PTH1-34 1 mg/mL pH 4.5): 6.2 ×10⁻⁶ cm/s; Papp A→B at 120 min, 40 mg/mL [2, 8]: 7.2 ×10⁻⁶ cm/s
2 | CC[C@H](C)[C@H](NC(=O)[C@H](CCCCN)NC(=O)[C@H](CCCCN)NC(=O)[C@H](C)NC(=O)[C@H](CC(C)C)NC(=O)[C@H](C)NC(=O)[C@H](C)NC(=O)[C@H](CC(C)C)NC(=O)[C@H](C)NC(=O)[C@H](CCCCN)NC(=O)[C@H](CC(C)C)NC(=O)[C@H](CC(N)=O)NC(=O)[C@@H](NC(=O)[C@H](CCCCN)NC(=O)CNC(=O)[C@H](CC(C)C)NC(=O)[C@H](CC(C)C)NC(=O)[C@H](Cc1ccc(O)cc1)NC(=O)CNC(=O)[C@H](C)NC(=O)[C@H](CO)NC(=O)[C@H](CC(N)=O)NC(=O)[C@H](CC(C)C)NC(=O)[C@@H](NC(=O)[C@H](Cc1c[nH]c2ccccc12)NC(=O)CN)[C@@H](C)O)[C@@H](C)CC)C(=O)N[C@@H](CC(C)C)C(N)=O [PN161] | – | fastest recovery time | 0.0017 | 0.01 | 43 | 73 | 84 | – | TER reduction ([5]; 2.5 μM peptide): 11%
3 | CC[C@H](C)[C@H](NC(=O)[C@H](CCC(=O)O)NC(=O)[C@H](CO)NC(=O)[C@@H](NC(=O)[C@@H](N)CO)C(C)C)C(=O)N[C@@H](CCC(N)=O)C(=O)N[C@@H](CC(C)C)C(=O)N[C@@H](CCSC)C(=O)N[C@@H](Cc1cnc[nH]1)C(=O)N[C@@H](CC(N)=O)C(=O)N[C@@H](CC(C)C)C(=O)NCC(=O)N[C@@H](CCCCN)C(=O)N[C@@H](Cc1cnc[nH]1)C(=O)N[C@@H](CC(C)C)C(=O)N[C@@H](CC(N)=O)C(=O)N[C@@H](CO)C(=O)N[C@@H](CCSC)C(=O)N[C@@H](CCC(=O)O)C(=O)N[C@@H](CCCN=C(N)N)C(=O)N[C@H](C(=O)N[C@@H](CCC(=O)O)C(=O)N[C@@H](Cc1c[nH]c2ccccc12)C(=O)N[C@@H](CC(C)C)C(=O)N[C@@H](CCCN=C(N)N)C(=O)N[C@@H](CCCCN)C(=O)N[C@@H](CCCCN)C(=O)N[C@@H](CC(C)C)C(=O)N[C@@H](CCC(N)=O)C(=O)N[C@@H](CC(=O)O)C(=O)N[C@H](C(=O)N[C@@H](Cc1cnc[nH]1)C(=O)N[C@@H](CC(N)=O)C(=O)N[C@@H](Cc1ccccc1)C(=O)O)C(C)C)C(C)C [PTH1-34, human parathyroid hormone 1-34] | 1.1e-07 | – | – | – | – | – | – | – | fold increase in Papp in the presence of PN159 [1]: 3-5 fold; Papp [1, 7]: 3.4e-07 cm/s; Papp [1, 8]: 4.3e-07 cm/s
4 | H-LLETLLKPFQCRICMRNFSTRQARRNHRRRHRR-NH2 (cysteine pairing not given here) [PN202] | – | fastest recovery time | 0.0011 | 0.02 | 3 | – | 95 | 95 | TER reduction ([5]; 50 μM peptide): 57%
5 | H-RRRQRRKRGGDIMGEWGNEIFGAIAGFLG-NH2 [PN250] | – | fastest recovery time | 0.0016 | 0.031 | 3 | 17 | 58 | 84 | TER reduction ([5]; 250 μM peptide): 79%
